Test results reported in PubChem BioAssay (NCI).
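The compound was tested at five concentrations on cells cultured in 96-well plates, with a 48-hour exposure period. At the GI50, growth is halved. Definition used: TGI = concentration required for complete inhibition of growth.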

Experiments:
Assay in all cases: NCI-60 cell line screen, 48 h
HCT-15 colon = tested on: HCT-15 colon
BT-549 breast = tested on: BT-549 breast
MCF7 breast = tested on: MCF7 breast
SF-539 CNS = tested on: SF-539 CNS
UO-31 renal = tested on: UO-31 renal
HL-60(TB) leukemia = tested on: HL-60(TB) leukemia
SR leukemia = tested on: SR leukemia
SF-268 CNS = tested on: SF-268 CNS
NCI-H226 lung = tested on: NCI-H226 lung
SF-295 CNS = tested on: SF-295 CNS

SMILES | GI50 (HCT-15 colon) [µM] | TGI (HCT-15 colon) [µM] | GI50 (BT-549 breast) [µM] | TGI (BT-549 breast) [µM] | GI50 (MCF7 breast) [µM] | TGI (MCF7 breast) [µM] | GI50 (SF-539 CNS) [µM] | TGI (SF-539 CNS) [µM] | GI50 (UO-31 renal) [µM] | TGI (UO-31 renal) [µM] | GI50 (HL-60(TB) leukemia) [µM] | TGI (HL-60(TB) leukemia) [µM] | GI50 (SR leukemia) [µM] | TGI (SR leukemia) [µM] | GI50 (SF-268 CNS) [µM] | TGI (SF-268 CNS) [µM] | GI50 (NCI-H226 lung) [µM] | TGI (NCI-H226 lung) [µM] | GI50 (SF-295 CNS) [µM] | TGI (SF-295 CNS) [µM]
O=Nc1c(-c2c(O)[nH]c3ncccc23)[nH]c2ccccc12 | 3.92 | > 100 | 5.41 | > 100 | 18.7 | > 100 | > 100 | > 100 | 1.64 | > 100 | 7.58 | > 100 | 0.274 | > 100 | > 100 | > 100 | 15.3 | > 100 | > 100 | > 100
Cc1ccc(C2C3Cc4ccccc4C3=NN2c2ccc(S(=O)(=O)/N=c3\scc(-c4ccccc4)n3-c3ccccc3)cc2)cc1 (stereo not given) | 25.4 | 79.2 | 18.8 | 43.3 | 5.71 | 33.7 | 19.5 | 37.3 | 18.4 | 55.4 | 14.5 | 31.5 | 11.1 | 24.5 | 16.7 | 42 | 21.4 | 67.2 | 19.1 | 40.1
N/C(=N\OC(=O)c1ccccc1)C(Cc1ccccc1)C(=O)NOC(=O)c1ccccc1 (stereo not given) | 2.21 | 10.5 | 4.26 | 16.5 | 2.78 | 10.3 | 1.84 | 3.99 | 1.45 | 3.07 | 2.35 | 6.56 | 1.08 | 3.68 | 1.64 | 3.33 | 3.51 | 14 | 1.38 | 3.1
COc1cc2cc(Oc3ccc(NC(=O)c4ccc(Cl)c(Cl)c4)cc3)c(C)nc2cc1OC | 7.94 | > 100 | 3.91 | > 100 | 5.32 | > 100 | > 100 | > 100 | 8.44 | > 100 | > 100 | > 100 | 19.6 | > 100 | > 100 | > 100 | > 100 | > 100 | 1.59 | > 100
CCC(=O)Nc1ccc(N2C(=O)/C(=C/c3ccc(OC)cc3)N=C2c2ccccc2)cc1 | 2.77 | > 50 | 10.9 | 36.4 | 7.77 | > 50 | 5.49 | 16 | 30 | > 50 | 23.7 | > 50 | 1.4 | > 50 | 4.88 | > 50 | 8.93 | 33.7 | 28 | > 50
COc1cc(/C=C/c2ccc3c(Br)cc(Br)c(O)c3n2)ccc1O | 0.424 | 15.3 | 2.61 | 13.6 | 1.53 | 12.5 | 2.29 | 10.3 | 1.28 | 12.4 | 0.46 | 2.92 | 0.476 | 3.41 | 1.31 | 14.8 | 4.61 | 17.4 | 0.912 | 14.4
